Assay results reported in ChEMBL document CHEMBL1201861, “Genomics of Drug Sensitity in Cancer screening data, Wellcome Trust Sanger Institute”.

Key:
Experiment in all cases: cells
Type in all cases: functional, cell-based, Homo sapiens
Capan-2 = test system: Capan-2;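 also: Capan-2 cell growth inhibition, read out with a viability assay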
Description: SANGER: Inhibition of human Capan-2 cell growth in a cell viability assay.

GP5d = test system: GP5d;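 also: growth inhibition of human GP5d cells, read out with a cell viability assay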
Description: SANGER: Inhibition of human GP5d cell growth in a cell viability assay.

HCC1954 = test system: HCC1954;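 also: growth inhibition of human HCC1954 cells, read out with a cell viability assay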
Description: SANGER: Inhibition of human HCC1954 cell growth in a cell viability assay.

HCT-15 = test system: HCT-15;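 also: cell viability readout, IC50 reflecting suppression of HCT-15 cell growth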
Description: SANGER: Inhibition of human HCT-15 cell growth in a cell viability assay.

HGC-27 = test system: HGC-27;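 also: growth inhibition of human HGC-27 cells, read out in a cell viability assay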
Description: SANGER: Inhibition of human HGC-27 cell growth in a cell viability assay.

HLE = test system: HLE;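 also: growth inhibition of human HLE cells, read out by a cell viability assay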
Description: SANGER: Inhibition of human HLE cell growth in a cell viability assay.

HN = test system: HN
Description: SANGER: Inhibition of human HN cell growth in a cell viability assay.

HOS = test system: HOS;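 also: growth inhibition of human HOS cells, read out with a cell viability assay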
Description: SANGER: Inhibition of human HOS cell growth in a cell viability assay.

HPAF-II = test system: HPAF-II;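 also: growth inhibition of HPAF-II cells, read out with a cell viability assay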
Description: SANGER: Inhibition of human HPAF-II cell growth in a cell viability assay.

Hs-578T = test system: Hs-578T
Description: SANGER: Inhibition of human Hs-578-T cell growth in a cell viability assay.

KP-N-YN = test system: KP-N-YN;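 also: growth inhibition of KP-N-YN cells, read out with a cell viability assay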
Description: SANGER: Inhibition of human KP-N-YN cell growth in a cell viability assay.

KYSE-410 = test system: KYSE-410;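 also: growth inhibition of KYSE-410 cells, measured through a cell viability readout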
Description: SANGER: Inhibition of human KYSE-410 cell growth in a cell viability assay.

LN-405 = test system: LN-405
Description: SANGER: Inhibition of human LN-405 cell growth in a cell viability assay.

LU-99A = test system: LU-99A;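 also: growth inhibition of LU-99A cells, read out with a cell viability assay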
Description: SANGER: Inhibition of human LU-99A cell growth in a cell viability assay.

MHH-ES-1 = test system: MHH-ES-1;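 also: cell growth inhibition measured by a cell viability assay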
Description: SANGER: Inhibition of human MHH-ES-1 cell growth in a cell viability assay.

MKN-28 = test system: MKN-28;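 also: cell viability assay read-out, IC50 reflects suppression of growth of human MKN-28 cells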
Description: SANGER: Inhibition of human MKN28 cell growth in a cell viability assay.

MOLT-13 = test system: MOLT-13;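 also: IC50 for suppression of MOLT-13 cell growth, read out with a cell viability assay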
Description: SANGER: Inhibition of human MOLT-13 cell growth in a cell viability assay.

NB14 = test system: NB14;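 also: growth inhibition of NB14 cells measured with a cell viability assay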
Description: SANGER: Inhibition of human NB14 cell growth in a cell viability assay.

NB7 = test system: NB7;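 also: growth inhibition of NB7 cells, read out with a cell viability assay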
Description: SANGER: Inhibition of human NB7 cell growth in a cell viability assay.

NCI-H1703 = test system: NCI-H1703;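 also: growth inhibition of NCI-H1703 cells, read out via a cell viability assay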
Description: SANGER: Inhibition of human NCI-H1703 cell growth in a cell viability assay.

NCI-H1793 = test system: NCI-H1793;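 also: cell growth inhibition, read out by a cell viability assay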
Description: SANGER: Inhibition of human NCI-H1793 cell growth in a cell viability assay.

NCI-H2087 = test system: NCI-H2087;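 also: growth inhibition determined with a cell viability readout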
Description: SANGER: Inhibition of human NCI-H2087 cell growth in a cell viability assay.

NCI-H2170 = test system: NCI-H2170;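 also: cell viability assay measuring growth inhibition of human NCI-H2170 cancer cells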
Description: SANGER: Inhibition of human NCI-H2170 cell growth in a cell viability assay.

NCI-H650 = test system: NCI-H650;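 also: growth inhibition of NCI-H650 cells, read out by a viability assay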
Description: SANGER: Inhibition of human NCI-H650 cell growth in a cell viability assay.

P12-Ichikawa = test system: P12-Ichikawa
PC-3 = test system: PC-3;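 also: cell viability assay measuring growth inhibition of PC-3 cells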
Description: SANGER: Inhibition of human PC-3 cell growth in a cell viability assay.

RO82-W-1 = test system: RO82-W-1;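 also: growth inhibition of human RO82-W-1 cells, measured with a cell viability assay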
Description: SANGER: Inhibition of human RO82-W-1 cell growth in a cell viability assay.

SAS = test system: SAS;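 also: growth inhibition of SAS cells, read out with a cell viability assay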
Description: SANGER: Inhibition of human SAS cell growth in a cell viability assay.

SJRH30 = test system: SJRH30;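 also: growth inhibition of human SJRH30 cells, read out with a cell viability assay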
Description: SANGER: Inhibition of human SJRH30 cell growth in a cell viability assay.

SK-MEL-24 = test system: SK-MEL-24;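 also: growth inhibition read out by a cell viability assay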
Description: SANGER: Inhibition of human SK-MEL-24 cell growth in a cell viability assay.

SNU-449 = test system: SNU-449
Description: SANGER: Inhibition of human SNU-449 cell growth in a cell viability assay.

SW 1116 = test system: SW 1116;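 also: growth inhibition of SW1116 cells, read out with a cell viability assay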
Description: SANGER: Inhibition of human SW1116 cell growth in a cell viability assay.

SW1710 = test system: SW1710;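 also: growth inhibition of SW1710 cells, determined with a cell viability assay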
Description: SANGER: Inhibition of human SW1710 cell growth in a cell viability assay.

SAOS-2 = test system: SAOS-2;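 also: growth inhibition of human Saos-2 cells determined by a cell viability assay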
Description: SANGER: Inhibition of human Saos-2 cell growth in a cell viability assay.

T47D = test system: T47D;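 also: growth inhibition of human T47D cells, measured with a cell viability assay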
Description: SANGER: Inhibition of human T47D cell growth in a cell viability assay.

BT-549 = test system: BT-549
Description: SANGER: Inhibition of human BT-549 cell growth in a cell viability assay.

CAL-27 = test system: CAL-27;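 also: Viability-based readout, IC50 reflecting inhibition of CAL-27 cell growth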
Description: SANGER: Inhibition of human CAL-27 cell growth in a cell viability assay.

CAMA-1 = test system: CAMA-1;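 also: growth inhibition of CAMA-1 cells, read out with a cell viability assay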
Description: SANGER: Inhibition of human CAMA-1 cell growth in a cell viability assay.

CHL-1 = test system: CHL-1;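 also: cell growth inhibition, read out with a cell viability assay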
Description: SANGER: Inhibition of human CHL-1 cell growth in a cell viability assay.

## CISPLATIN
Capan-2; capan-2
  IC50: 243 µM
GP5d; gp5d
  IC50: 24.2 µM
HCC1954; hcc1954
  IC50: 1030 µM
HCT-15; hct-15
  IC50: 267 µM
HGC-27; hgc-27
  IC50: 6.65 µM
HLE; hle
  IC50: 6.06 µM
HN; hn
  IC50: 36 µM
HOS; hos
  IC50: 2.56 µM
HPAF-II; hpaf-ii
  IC50: 114 µM
Hs-578T; hs-578-t
  IC50: 11.3 µM
KP-N-YN; kp-n-yn
  IC50: 581 µM
KYSE-410; kyse-410
  IC50: 515 µM
LN-405; ln-405
  IC50: 15.5 µM
LU-99A; lu-99a
  IC50: 4.29 µM
MHH-ES-1; mhh-es-1
  IC50: 55 µM
MKN-28; mkn-28
  IC50: 31.4 µM
MOLT-13; molt-13
  IC50: 381 µM
NB14; nb14
  IC50: 171 µM
NB7; nb7
  IC50: 15.4 µM
NCI-H1703; nci-h1703
  IC50: 148 µM
NCI-H1793; nci-h1793
  IC50: 19.1 µM
NCI-H2087; nci-h2087
  IC50: 14.5 µM
NCI-H2170; nci-h2170
  IC50: 23 µM
NCI-H650; nci-h650
  IC50: 29.9 µM
P12-Ichikawa; p12-ichikawa
  IC50: 2.04 µM
PC-3; pc-3
  IC50: 96.7 µM
RO82-W-1; ro82-w-1
  IC50: 72.1 µM
SAS; sas
  IC50: 18.5 µM
SJRH30; sjrh30
  IC50: 98.3 µM
SK-MEL-24; sk-mel-24
  IC50: 43.7 µM
SNU-449; snu-449
  IC50: 72 µM
SW 1116; sw 1116
  IC50: 158 µM
SW1710; sw1710
  IC50: 44.4 µM
SAOS-2; saos-2
  IC50: 36.3 µM
T47D; t47d
  IC50: 129 µM
BT-549; bt-549
  IC50: 14.6 µM
CAL-27; cal-27
  IC50: 6.69 µM
CAMA-1; cama-1
  IC50: 117 µM
CHL-1; chl-1
  IC50: 99.2 µM

## Cc1cn(-c2cc(NC(=O)c3ccc(C)c(Nc4nccc(-c5cccnc5)n4)c3)cc(C(F)(F)F)c2)cn1 [NILOTINIB]
Capan-2; Homo sapiens, Capan-2
  IC50: > 2 µM
GP5d; Homo sapiens, GP5d
  IC50: > 2 µM
HCC1954; Homo sapiens, HCC1954
  IC50: > 2 µM
HCT-15; Homo sapiens, HCT-15
  IC50: > 2 µM
HGC-27; Homo sapiens, HGC-27
  IC50: > 2 µM
HLE; Homo sapiens, HLE
  IC50: > 2 µM
HN; Homo sapiens, HN
  IC50: > 2 µM
HOS; Homo sapiens, HOS
  IC50: > 2 µM
HPAF-II; Homo sapiens, HPAF-II
  IC50: > 2 µM
Hs-578T; Homo sapiens, Hs-578T
  IC50: > 2 µM
KP-N-YN; Homo sapiens, KP-N-YN
  IC50: > 2 µM
KYSE-410; Homo sapiens, KYSE-410
  IC50: > 2 µM
LN-405; Homo sapiens, LN-405
  IC50: > 2 µM
LU-99A; Homo sapiens, LU-99A
  IC50: > 2 µM
MHH-ES-1; Homo sapiens, MHH-ES-1
  IC50: > 2 µM
MKN-28; Homo sapiens, MKN-28
  IC50: > 2 µM
MOLT-13; Homo sapiens, MOLT-13
  IC50: > 2 µM
NB14; Homo sapiens, NB14
  IC50: > 2 µM
NB7; Homo sapiens, NB7
  IC50: 0.134 µM
NCI-H1703; Homo sapiens, NCI-H1703
  IC50: 1.19 µM
NCI-H1793; Homo sapiens, NCI-H1793
  IC50: > 2 µM
NCI-H2087; Homo sapiens, NCI-H2087
  IC50: > 2 µM
NCI-H2170; Homo sapiens, NCI-H2170
  IC50: > 2 µM
NCI-H650; Homo sapiens, NCI-H650
  IC50: > 2 µM
P12-Ichikawa; Homo sapiens, P12-Ichikawa
  IC50: > 2 µM
PC-3; Homo sapiens, PC-3
  IC50: > 2 µM
RO82-W-1; Homo sapiens, RO82-W-1
  IC50: > 2 µM
SAS; Homo sapiens, SAS
  IC50: > 2 µM
SJRH30; Homo sapiens, SJRH30
  IC50: > 2 µM
SK-MEL-24; Homo sapiens, SK-MEL-24
  IC50: > 2 µM
SNU-449; Homo sapiens, SNU-449
  IC50: > 2 µM
SW 1116; Homo sapiens, SW 1116
  IC50: > 2 µM
SW1710; Homo sapiens, SW1710
  IC50: > 2 µM
SAOS-2; Homo sapiens, SAOS-2
  IC50: > 2 µM
T47D; Homo sapiens, T47D
  IC50: > 2 µM
BT-549; Homo sapiens, BT-549
  IC50: > 2 µM
CAL-27; Homo sapiens, CAL-27
  IC50: > 2 µM
CAMA-1; Homo sapiens, CAMA-1
  IC50: > 2 µM
CHL-1; Homo sapiens, CHL-1
  IC50: > 2 µM

## CN(C)C(=N)NC(=N)N [METFORMIN]
GP5d; Homo sapiens, GP5d
  IC50: > 20000 µM
HCT-15; Homo sapiens, HCT-15
  IC50: 8890 µM
HGC-27; Homo sapiens, HGC-27
  IC50: > 20000 µM
HLE; Homo sapiens, HLE
  IC50: 9860 µM
HN; Homo sapiens, HN
  IC50: > 20000 µM
HOS; Homo sapiens, HOS
  IC50: > 20000 µM
HPAF-II; Homo sapiens, HPAF-II
  IC50: 7740 µM
Hs-578T; Homo sapiens, Hs-578T
  IC50: > 20000 µM
KYSE-410; Homo sapiens, KYSE-410
  IC50: > 20000 µM
MHH-ES-1; Homo sapiens, MHH-ES-1
  IC50: > 20000 µM
MKN-28; Homo sapiens, MKN-28
  IC50: > 20000 µM
MOLT-13; Homo sapiens, MOLT-13
  IC50: 556 µM
NCI-H1703; Homo sapiens, NCI-H1703
  IC50: 17300 µM
NCI-H1793; Homo sapiens, NCI-H1793
  IC50: 18500 µM
NCI-H2087; Homo sapiens, NCI-H2087
  IC50: > 20000 µM
P12-Ichikawa; Homo sapiens, P12-Ichikawa
  IC50: 12400 µM
PC-3; Homo sapiens, PC-3
  IC50: > 20000 µM
RO82-W-1; Homo sapiens, RO82-W-1
  IC50: > 20000 µM
SAS; Homo sapiens, SAS
  IC50: 11300 µM
SK-MEL-24; Homo sapiens, SK-MEL-24
  IC50: > 20000 µM
SNU-449; Homo sapiens, SNU-449
  IC50: > 20000 µM
SW 1116; Homo sapiens, SW 1116
  IC50: > 20000 µM
SW1710; Homo sapiens, SW1710
  IC50: > 20000 µM
T47D; Homo sapiens, T47D
  IC50: 19900 µM
BT-549; Homo sapiens, BT-549
  IC50: 4200 µM
CAL-27; Homo sapiens, CAL-27
  IC50: > 20000 µM
CAMA-1; Homo sapiens, CAMA-1
  IC50: 11000 µM
CHL-1; Homo sapiens, CHL-1
  IC50: 19500 µM
